Data from patent US5744621A, “Irreversible HIV protease inhibitors, intermediates, compositions and processes for the preparation thereof” (Lucky Limited., priority 1992, dated 1998).
pKi: −log10 of the molar value.

Target: T1, HIV-1 protease (Human immunodeficiency virus type 1 group M subtype B, UniProt P04585)
T1 construct: 2.6 nM of HIV-1 protease
Experiment: Assay for inhibitory effect on HIV protease (residual enzyme activity, HPLC of substrate cleavage)
Assay type: biochemical
Details: for pKi / kinact: HIV-1 protease 2.6 nM; for pKi / kinact / kinact/KI: pH 5.5; for pKi: inhibition constant; for kinact: rate constant of covalent bond formation, read-out: kina (converted); for kinact/KI: second order rate constant, HIV-1 protease, read-out: kina /KI (converted)
Protocol: The inhibitory effect on HIV protease of the compounds of the present invention was determined by the following method.
To a buffer solution comprising 50 mM sodium acetate, pH 5.5, 1 mM dithiothreitol(DTT), 1 mM ethylenediaminetetraacetate (EDTA), 0.75M ammonium sulfate, 0.2M sodium chloride and 0.1% NP40(NONIDET P-40; Sigma Chemical Co., U.S.A.), were added various concentrations of a compound selected from Compound Nos. 1 to 92 to prepare a preincubation solution. Inhibition reaction was started with the addition of 2.6 nM of HIV-1 protease to the preincubation solution. Each 10 μl of the reaction solution was taken at a given time interval and added to 80 μl of assay solution containing 100 μM of reaction substrate in the same buffer solution as above to assay for the residual enzyme activity. In this context, an oligopeptide(KM =20 μM) consisting of 11 amino acids, i.e., Ser-Ile-Ala-Glu-(p-NO2)-Phe-Leu-Val-Arg-Ala-Lys-His, was used as a reaction substrate, which oligopeptide was to be cleaved in two by the breakage of amide bond between (P--NO2)-Phe and Leu upon the attack of HIV protease. The reaction rate was determined by subjecting the substrate before the reaction and the product after the reaction to HPLC separation and then measuring the relative amount of the product, using the strong absorbance of (p--NO2)-Phe at 280 nm. The amount of reduction in enzyme activity according to the elapsed time were measured and the natural logarithmic values(ln) of the measured amounts were plotted against time to obtain a linear graph and kobs was calculated from the slope of the linear graph.
The inhibition constant was calculated according to the following equation: [formula] wherein: kobs is a rate constant indicating the rate of reduction in enzyme activity according to the elapsed time under the presence of a given concentration of inhibitor,
kina is a rate constant indicating the rate of chemical reaction forming covalent bond between an enzyme and an inhibitor in Michaelis-Menten complex,
KI is an inhibition constant indicating the dissociation rate of Michaelis-Menten complex into an enzyme and an inhibitor, and
[I] means the inhibitor concentration.
The above equation is applicable to an experiment carried out under the condition in which the concentration of inhibitor is far higher than that of enzyme(Steady State Kinetic). […] The inhibition constants KI and kina and second order rate constant kina /KI were obtained by inputting the value of [E]/([E]+[EI]+[EI']) into KINSIM/FITSIM program. FIG. 1 exemplifies a result of the experiment determining the binding ratio of enzymes and inhibitors, which result was obtained by reacting the enzyme and the inhibitor in various concentration ratios for a sufficient time period(at least for 30 minutes), and then plotting the relative activity of the remaining enzyme against [conc. of inhibitor]/[conc. of enzyme].

`CC[C@H](C)[C@H](NC(=O)C[C@@H]1O[C@@H]1[C@H](Cc1ccccc1)NC(=O)[C@H](CC(N)=O)NC(=O)COc1ccccc1)C(=O)OC` [compound 4] was tested, and the pKi was 7.22, the kinact was 0.0015 s⁻¹ and the kinact/KI was 25000 M⁻¹ s⁻¹.

`CC[C@H](C)[C@H](NC(=O)C[C@@H]1O[C@@H]1[C@H](CC1CCCCC1)NC(=O)[C@H](CC(N)=O)NC(=O)c1ccc2ccccc2n1)C(=O)OC` [compound 5] gave a pKi of 7.04, a kinact of 0.00333 s⁻¹ and a kinact/KI of 36700 M⁻¹ s⁻¹.

`COC(=O)C(NC(=O)C(CCC(N)=O)NC(=O)C[C@@H]1O[C@@H]1[C@H](Cc1ccccc1)NC(=O)[C@H](CC(N)=O)NC(=O)COc1cccc2ccccc12)C(C)C` (some centres unmarked) [compound 16] gave a pKi of 6.38, a kinact of 0.0025 s⁻¹ and a kinact/KI of 6000 M⁻¹ s⁻¹.

With `CC[C@H](C)[C@H](NC(=O)C[C@@H]1O[C@@H]1[C@H](Cc1ccccc1)NC(=O)[C@H](CC(N)=O)NC(=O)c1ccc2ccccc2n1)C(=O)N1CCOCC1` [compound 29] the pKi was under 5.00.

With `CNC(=O)[C@@H](NC(=O)C[C@@H]1O[C@@H]1[C@H](Cc1ccccc1)NC(=O)[C@H](CC(N)=O)NC(=O)c1ccc2ccccc2n1)C(C)C` [compound 30] the pKi was 7.66, the kinact was 0.00333 s⁻¹ and the kinact/KI was 183000 M⁻¹ s⁻¹.

In the case of `CONC(=O)[C@@H](NC(=O)C[C@@H]1O[C@@H]1[C@H](Cc1ccccc1)NC(=O)[C@H](CC(N)=O)NC(=O)c1ccc2ccccc2n1)C(C)C` [compound 34], the pKi was 7.82, the kinact was 0.00267 s⁻¹ and the kinact/KI was 183000 M⁻¹ s⁻¹.

With `CC[C@H](C)[C@H](NC(=O)C[C@@H]1O[C@@H]1[C@H](Cc1ccccc1)NC(=O)[C@@H](NC(=O)OCc1ccccn1)C(C)C)C(=O)OC` [compound 38, N-{N-L-[[N-(2-pyridylmethoxycarbonyl)-L-valinyl)-amino]-(4R,3S)-epoxy-6-phenyl-hexanoyl}-L-isoleucine methyl ester] the pKi was under 5.00.

Work on `CC(C)(C)OC(=O)N[C@@H](Cc1ccccc1)[C@H]1O[C@H]1CCc1ccccc1` [compound 51, 2-L-(t-butoxycarbonyl)amino-(3R,4S)-epoxy-1,6-diphenylhexane] yielded a pKi of 5.15, a kinact of 0.000833 s⁻¹ and a kinact/KI of 118 M⁻¹ s⁻¹.

`CC[C@H](C)[C@H](NC(=O)OCc1ccccc1)C(=O)N[C@@H](Cc1ccccc1)[C@H]1O[C@H]1CCc1ccccc1` [compound 54, 2-L-(N-benzyloxycarbonyl-L-isoleucinyl)amino-(3R,4S)-epoxy-1,6-diphenylhexane] was tested, and the pKi was 6.00, the kinact was 0.0075 s⁻¹ and the kinact/KI was 7500 M⁻¹ s⁻¹.

Compound `NC(=O)CC[C@H](NC(=O)OCc1ccccc1)C(=O)N[C@@H](Cc1ccccc1)[C@H]1O[C@H]1CCc1ccccc1` [compound 55, 2-L-(N-benzyloxycarbonyl-L-glutaminyl)amino-(3R,4S)-epoxy-1,6-diphenylhexane] has a pKi of 5.66, a kinact of 0.00367 s⁻¹ and a kinact/KI of 1670 M⁻¹ s⁻¹.

`CC(C)C[C@H](NC(=O)[C@H](CC(N)=O)NC(=O)OCc1ccccc1)[C@H]1O[C@H]1CCc1ccccc1` [compound 56, 5-L-(N-benzyloxycarbonyl-L-asparaginyl)amino-(3S,4R)-epoxy-7-methyl-1-phenyloctane] showed a pKi of 4.35, a kinact of 0.00483 s⁻¹ and a kinact/KI of 108 M⁻¹ s⁻¹.

Compound `NC(=O)C[C@H](NC(=O)COc1ccccc1)C(=O)N[C@@H](Cc1ccccc1)[C@H]1O[C@H]1CCc1ccccc1` [compound 57, 2-L-(N-phenoxyacetyl-L-asparaginyl)amino-(3R,4S)-epoxy-1,6-diphenylhexane] has a pKi of 4.90, a kinact of 0.0015 s⁻¹ and a kinact/KI of 120 M⁻¹ s⁻¹.

In the case of `NC(=O)C[C@H](NC(=O)COc1ccc(F)cc1F)C(=O)N[C@@H](Cc1ccccc1)[C@H]1O[C@H]1CCc1ccccc1` [compound 58, 2-L-[N-(2,4-difluoro)phenoxyacetyl-L-asparaginyl]amino-(3R,4S)-epoxy-1,6-diphenylhexane], the pKi was 5.48, the kinact was 0.0005 s⁻¹ and the kinact/KI was 152 M⁻¹ s⁻¹.

With `NC(=O)C[C@H](NC(=O)c1ccc2ccccc2[n+]1[O-])C(=O)N[C@@H](Cc1ccccc1)[C@H]1O[C@H]1CCc1ccccc1` [compound 64, 2-L-[N-(N-oxy)quinoline-2-yl-carbonyl-L-asparaginyl]amino-(3R,4S)-epoxy-1,6-diphenylhexane] the pKi was 5.44, the kinact was 0.0015 s⁻¹ and the kinact/KI was 417 M⁻¹ s⁻¹.

Work on `NC(=O)C[C@H](NC(=O)[C@H](Cc1ccccc1)NC(=O)CCN1CCOCC1)C(=O)N[C@@H](Cc1ccccc1)[C@H]1O[C@H]1CCc1ccccc1` [compound 66, 2-L-[N-(N-morpholinepropanecarbonyl-L-phenylalanyl)-L-asparaginyl]amino-(3R,4S)-epoxy-1,6-diphenylhexane] yielded a pKi of 6.26, a kinact of 0.0128 s⁻¹ and a kinact/KI of 23300 M⁻¹ s⁻¹.

`C[C@H](NC(=O)OCc1ccccc1)C(=O)N[C@@H](CC(N)=O)C(=O)N[C@@H](Cc1ccccc1)[C@H]1O[C@H]1CCc1ccccc1` [compound 67, 2-L-[N-(N-benzyloxycarbonyl-L-alanyl)-L-asparaginyl]amino-(3R,4S)-epoxy-1,6-diphenylhexane] showed a pKi of 6.59, a kinact of 0.00117 s⁻¹ and a kinact/KI of 4500 M⁻¹ s⁻¹.

Work on `NC(=O)C[C@H](NC(=O)[C@H](Cc1ccccc1)NC(=O)OCc1ccccc1)C(=O)N[C@@H](Cc1ccccc1)[C@H]1O[C@H]1CCc1ccccc1` [compound 68, 2-L-[N-(N-benzyloxycarbonyl-L-phenylalanyl)-L-asparaginyl]amino-(3R,4S)-epoxy-1,6-diphenylhexane] yielded a pKi of 5.40, a kinact of 0.000667 s⁻¹ and a kinact/KI of 167 M⁻¹ s⁻¹.

`CC(C)CC[C@@H]1O[C@@H]1[C@H](Cc1ccccc1)NC(=O)[C@H](CC(N)=O)NC(=O)OCc1ccccc1` [compound 69, 2-L-(N-benzyloxycarbonyl-L-asparagyl)amino-(3R,4S)-epoxy-7-methyl-1-phenyloctane] showed a pKi of 6.26, a kinact of 0.001 s⁻¹ and a kinact/KI of 1830 M⁻¹ s⁻¹.

`O=C(O)CC[C@H](NC(=O)OCc1ccccc1)C(=O)NC[C@@H]1O[C@@H]1[C@H](Cc1ccccc1)NC(=O)[C@H](CCC(=O)O)NC(=O)OCc1ccccc1` [compound 74, 4S-1,4-bis[N-(N'-benzyloxycarbonyl-L-glutamic acidyl)amino]-5-phenyl-(2S,3R)-(Z)-epoxypentane] gave a pKi of under 5.00.

`CC(C)[C@H](NC(=O)OCc1cccnc1)C(=O)NC[C@@H]1O[C@@H]1[C@H](Cc1ccccc1)NC(=O)[C@@H](NC(=O)OCc1cccnc1)C(C)C` [compound 78] showed a pKi of 6.14, a kinact of 0.00167 s⁻¹ and a kinact/KI of 2330 M⁻¹ s⁻¹.

Compound `CC(C)[C@H](NC(=O)OCc1ccncc1)C(=O)NC[C@@H]1O[C@@H]1[C@H](Cc1ccccc1)NC(=O)[C@@H](NC(=O)OCc1ccncc1)C(C)C` [compound 79] has a pKi of 5.52, a kinact of 0.00167 s⁻¹ and a kinact/KI of 550 M⁻¹ s⁻¹.

`CC(C)[C@H](NC(=O)N(C)Cc1ccccc1)C(=O)NC[C@@H]1O[C@@H]1[C@H](Cc1ccccc1)NC(=O)[C@@H](NC(=O)N(C)Cc1ccccc1)C(C)C` [compound 81, 4S-1,4-bis[N-[(N'-benzylmethylamino)carbonyl-L-valinyl]amino]-5-phenyl-(2S,3R)-(Z)-epoxypentane] showed a pKi of under 5.00.

For `CC(C)[C@H](NC=O)C(=O)NC[C@@H]1O[C@@H]1[C@H](Cc1ccccc1)NC(=O)[C@H](CC(N)=O)NC(=O)c1ccc2ccccc2n1` [compound 88], the pKi was 6.07, the kinact was 0.0367 s⁻¹ and the kinact/KI was 43300 M⁻¹ s⁻¹.

Compound `CCC(C)[C@H](NC=O)C(=O)NC[C@@H]1O[C@@H]1[C@H](Cc1ccccc1)NC(=O)[C@H](CC(N)=O)NC(=O)c1ccc2ccccc2n1` (some centres unmarked) [compound 90] has a pKi of 6.85, a kinact of 0.00667 s⁻¹ and a kinact/KI of 48300 M⁻¹ s⁻¹.

Compound `NC(=O)C[C@H](NC(=O)c1ccc2ccccc2n1)C(=O)N[C@@H](Cc1ccccc1)[C@H]1O[C@H]1CNC(=O)[C@@H](NC=O)c1ccccc1` [compound 91] has a pKi of 5.92, a kinact of 0.005 s⁻¹ and a kinact/KI of 4170 M⁻¹ s⁻¹.

`NC(=O)C[C@H](NC(=O)c1ccc2ccccc2n1)C(=O)N[C@@H](Cc1ccccc1)[C@H]1O[C@H]1CNC(=O)[C@H](Cc1ccccc1)NC=O` [compound 92] gave a pKi of 5.85, a kinact of 0.00333 s⁻¹ and a kinact/KI of 2330 M⁻¹ s⁻¹.

Compound “Ser-Ile-Ala-Glu-(p-NO2)-Phe-Leu-Val-Arg-Ala-Lys-His [reference compound]” has a Km (oligopeptide substrate of 11 amino acids, read-out: KM of reaction substrate) of 20 µM.
